Where “and” joins values, the source holds several entries; their conditions need not be identical. Equal values may be shown once. Entries after “also recorded” stand apart in the source; their conditions may differ.
Columns and labels:
[1] = system: BB; test: CEREP panel; assay type: binding; conditions: 10 µM
[2] = target: T1, NOP (ORL1) (h) (Homo sapiens, UniProt P41146); test: CEREP panel; assay type: binding; conditions: 10 µM
T1 construct: CEREP (contract assay)

[3] = target: T2, mCB2R (Mus musculus, UniProt P47936); test: PathHunter β-arrestin recruitment assay; assay type: cell-based
T2 sequence (P47936 whole entry): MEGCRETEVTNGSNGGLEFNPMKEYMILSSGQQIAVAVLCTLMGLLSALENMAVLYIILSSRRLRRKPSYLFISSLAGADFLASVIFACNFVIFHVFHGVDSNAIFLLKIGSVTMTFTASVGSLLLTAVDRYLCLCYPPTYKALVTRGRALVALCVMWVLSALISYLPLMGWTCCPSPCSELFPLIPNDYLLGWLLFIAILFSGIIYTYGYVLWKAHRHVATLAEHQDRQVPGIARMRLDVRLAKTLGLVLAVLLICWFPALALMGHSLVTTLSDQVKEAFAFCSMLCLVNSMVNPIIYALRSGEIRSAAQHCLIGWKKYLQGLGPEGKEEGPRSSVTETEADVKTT

[4] = target: T2, mCB2R; test: Operational analysis of biased signalling
[5] = target: T3, B2 (h) (Homo sapiens, UniProt P30411); test: CEREP panel; assay type: binding; conditions: 10 µM
T3 construct: CEREP
T3 sequence (P30411 1-391): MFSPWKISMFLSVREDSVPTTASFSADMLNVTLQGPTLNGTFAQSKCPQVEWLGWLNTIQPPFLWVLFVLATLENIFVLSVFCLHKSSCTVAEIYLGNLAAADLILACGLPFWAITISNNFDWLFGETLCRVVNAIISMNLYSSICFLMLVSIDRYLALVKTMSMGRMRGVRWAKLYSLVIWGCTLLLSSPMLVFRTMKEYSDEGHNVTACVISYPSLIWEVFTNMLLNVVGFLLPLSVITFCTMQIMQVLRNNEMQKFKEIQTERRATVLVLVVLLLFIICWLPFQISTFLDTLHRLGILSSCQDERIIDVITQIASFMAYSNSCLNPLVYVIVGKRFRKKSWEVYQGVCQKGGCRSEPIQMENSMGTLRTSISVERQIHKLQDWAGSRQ

[6] = target: T4, dopamine uptake reporter (Homo sapiens, UniProt Q01959); test: Dopamine uptake full dose-response (CEREP follow-up)
T4 construct: CEREP

[7] = target: T5, MC4 (h) (Homo sapiens, UniProt P32245); test: CEREP panel; assay type: binding; conditions: 10 µM
T5 construct: CEREP (contract assay)
T5 sequence (P32245 whole entry): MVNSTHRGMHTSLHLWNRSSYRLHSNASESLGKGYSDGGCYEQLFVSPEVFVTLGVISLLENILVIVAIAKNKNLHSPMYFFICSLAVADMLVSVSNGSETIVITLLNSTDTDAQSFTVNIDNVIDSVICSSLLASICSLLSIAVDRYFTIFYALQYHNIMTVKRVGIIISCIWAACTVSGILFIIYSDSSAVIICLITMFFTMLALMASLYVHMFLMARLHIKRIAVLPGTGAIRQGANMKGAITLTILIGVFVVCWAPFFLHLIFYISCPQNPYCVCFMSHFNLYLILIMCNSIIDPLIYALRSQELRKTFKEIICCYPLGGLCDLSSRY

[8] = system: C57BL6/J mice; test: Triad assay: hypothermia; assay type: in vivo, mouse
[9] = system: P2Y; test: CEREP panel; assay type: binding; conditions: 10 µM
[10] = system: C57BL6/J mice; test: Triad assay: antinociception; assay type: in vivo, mouse
[11] = target: human P-gp (Homo sapiens, UniProt P08183); conditions: efflux ratio
Chain of human P-gp (P08183 whole entry): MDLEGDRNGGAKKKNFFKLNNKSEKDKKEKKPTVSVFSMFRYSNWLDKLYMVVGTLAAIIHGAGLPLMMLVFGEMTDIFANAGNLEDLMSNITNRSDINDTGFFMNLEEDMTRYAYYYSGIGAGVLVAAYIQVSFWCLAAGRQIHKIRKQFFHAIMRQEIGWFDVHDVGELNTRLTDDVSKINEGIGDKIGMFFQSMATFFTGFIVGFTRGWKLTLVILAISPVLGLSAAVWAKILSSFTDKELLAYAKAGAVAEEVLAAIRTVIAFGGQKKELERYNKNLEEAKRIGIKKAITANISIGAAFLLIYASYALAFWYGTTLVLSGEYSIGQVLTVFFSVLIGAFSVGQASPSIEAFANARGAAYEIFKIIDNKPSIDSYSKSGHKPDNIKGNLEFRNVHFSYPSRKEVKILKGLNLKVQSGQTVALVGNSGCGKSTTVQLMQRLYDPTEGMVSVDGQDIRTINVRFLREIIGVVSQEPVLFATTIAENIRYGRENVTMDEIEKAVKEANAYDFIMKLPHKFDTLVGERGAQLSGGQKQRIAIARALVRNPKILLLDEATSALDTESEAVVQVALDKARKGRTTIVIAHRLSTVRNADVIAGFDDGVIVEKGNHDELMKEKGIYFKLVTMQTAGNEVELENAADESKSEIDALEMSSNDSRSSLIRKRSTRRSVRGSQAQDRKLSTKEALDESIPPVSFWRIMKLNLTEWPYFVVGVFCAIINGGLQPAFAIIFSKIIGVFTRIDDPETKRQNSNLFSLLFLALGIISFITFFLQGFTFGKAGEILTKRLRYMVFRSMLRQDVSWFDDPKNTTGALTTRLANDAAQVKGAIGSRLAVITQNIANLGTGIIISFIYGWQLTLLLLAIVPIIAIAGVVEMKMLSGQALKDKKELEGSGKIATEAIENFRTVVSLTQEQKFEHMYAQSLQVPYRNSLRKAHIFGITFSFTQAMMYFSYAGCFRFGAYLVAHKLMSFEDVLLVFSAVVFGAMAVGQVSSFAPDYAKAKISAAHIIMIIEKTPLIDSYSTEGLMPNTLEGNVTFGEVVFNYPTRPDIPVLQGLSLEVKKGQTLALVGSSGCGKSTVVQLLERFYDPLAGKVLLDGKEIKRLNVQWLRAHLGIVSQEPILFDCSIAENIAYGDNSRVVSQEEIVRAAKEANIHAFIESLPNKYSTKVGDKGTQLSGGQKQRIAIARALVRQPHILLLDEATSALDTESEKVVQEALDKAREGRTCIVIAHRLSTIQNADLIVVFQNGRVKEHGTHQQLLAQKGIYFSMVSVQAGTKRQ

[12] = Pharmacokinetics, oral administration in mice; assay type: in vivo, mouse; conditions: p.o.
[13] = system: P2X; test: CEREP panel; assay type: binding; conditions: 10 µM
[14] = target: T6, MCH1 (Homo sapiens, UniProt Q99705); test: CEREP panel; assay type: binding
T6 construct: CEREP (contract assay)
T6 sequence (Q99705 whole entry): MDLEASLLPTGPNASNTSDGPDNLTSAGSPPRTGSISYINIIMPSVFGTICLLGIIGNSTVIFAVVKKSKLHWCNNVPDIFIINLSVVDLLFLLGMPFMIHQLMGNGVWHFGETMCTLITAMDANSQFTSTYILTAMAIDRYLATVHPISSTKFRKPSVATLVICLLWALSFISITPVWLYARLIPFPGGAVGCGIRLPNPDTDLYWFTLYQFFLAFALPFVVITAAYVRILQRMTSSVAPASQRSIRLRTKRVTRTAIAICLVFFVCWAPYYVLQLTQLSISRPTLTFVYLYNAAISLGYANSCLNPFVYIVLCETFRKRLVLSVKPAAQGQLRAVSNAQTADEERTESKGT

[15] = target: T7, C5a (Homo sapiens, UniProt P21730); test: CEREP panel; assay type: binding
T7 construct: CEREP (contract assay)

[16] = in vitro; conditions: human, hepatocytes
[17] = physchem; conditions: organic solvent or mixture
[18] = target: T8, BLT1 (LTB4) (Homo sapiens, UniProt Q15722); test: CEREP panel; assay type: binding
T8 construct: CEREP
T8 sequence (Q15722 whole entry): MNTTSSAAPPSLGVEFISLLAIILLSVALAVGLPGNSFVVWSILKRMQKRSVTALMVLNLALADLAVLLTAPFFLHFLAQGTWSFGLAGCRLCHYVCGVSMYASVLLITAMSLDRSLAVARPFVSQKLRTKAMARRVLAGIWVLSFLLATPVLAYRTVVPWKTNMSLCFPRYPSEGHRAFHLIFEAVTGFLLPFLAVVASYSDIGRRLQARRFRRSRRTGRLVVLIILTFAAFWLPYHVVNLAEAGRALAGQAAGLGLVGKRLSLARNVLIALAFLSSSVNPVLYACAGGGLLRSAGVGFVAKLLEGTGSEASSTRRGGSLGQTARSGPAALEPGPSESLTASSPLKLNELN

[19] = in vitro; conditions: C57BL6, mouse, hepatocytes
[20] = physchem; conditions: pH 6.5, aqueous buffer, thermodynamic from solid
[21] = target: T9, B1 (Homo sapiens, UniProt P46663); test: CEREP panel; assay type: binding
T9 construct: CEREP
T9 sequence (P46663 whole entry): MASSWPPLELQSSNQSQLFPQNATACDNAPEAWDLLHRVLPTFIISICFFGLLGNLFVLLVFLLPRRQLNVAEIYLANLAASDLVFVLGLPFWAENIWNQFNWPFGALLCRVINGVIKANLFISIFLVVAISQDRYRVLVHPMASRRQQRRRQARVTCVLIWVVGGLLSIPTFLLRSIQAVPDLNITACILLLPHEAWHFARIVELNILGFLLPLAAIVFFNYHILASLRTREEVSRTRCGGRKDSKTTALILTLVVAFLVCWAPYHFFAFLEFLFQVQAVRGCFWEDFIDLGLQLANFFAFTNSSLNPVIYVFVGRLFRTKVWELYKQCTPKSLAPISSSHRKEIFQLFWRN

[22] = target: T10, MC5 (Homo sapiens, UniProt P33032); test: CEREP panel; assay type: binding
T10 construct: CEREP (contract assay)
T10 sequence (P33032 whole entry): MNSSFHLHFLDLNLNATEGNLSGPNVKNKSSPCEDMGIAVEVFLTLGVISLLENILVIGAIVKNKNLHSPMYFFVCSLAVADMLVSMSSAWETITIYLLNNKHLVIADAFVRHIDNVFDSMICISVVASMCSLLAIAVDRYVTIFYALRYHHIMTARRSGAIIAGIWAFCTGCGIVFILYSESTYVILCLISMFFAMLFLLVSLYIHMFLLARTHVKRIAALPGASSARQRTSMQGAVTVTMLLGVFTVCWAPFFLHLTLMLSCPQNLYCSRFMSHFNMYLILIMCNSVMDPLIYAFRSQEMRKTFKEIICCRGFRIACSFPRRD

[23] = target: T11, MCH2 (Homo sapiens, UniProt Q969V1); test: CEREP panel; assay type: binding
T11 construct: CEREP (contract assay)
T11 sequence (Q969V1 whole entry): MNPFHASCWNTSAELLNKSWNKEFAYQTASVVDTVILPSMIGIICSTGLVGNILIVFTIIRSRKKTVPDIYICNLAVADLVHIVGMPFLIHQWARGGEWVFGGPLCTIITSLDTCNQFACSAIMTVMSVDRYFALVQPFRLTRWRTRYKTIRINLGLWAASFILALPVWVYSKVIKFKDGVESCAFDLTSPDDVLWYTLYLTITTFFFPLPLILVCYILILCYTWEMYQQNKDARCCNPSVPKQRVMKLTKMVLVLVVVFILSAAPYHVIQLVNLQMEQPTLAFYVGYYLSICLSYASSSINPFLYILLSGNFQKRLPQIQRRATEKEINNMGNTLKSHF

[24] = target: T12, MC3 (Homo sapiens, UniProt P41968); test: CEREP panel; assay type: binding
T12 construct: CEREP (contract assay)
T12 sequence (P41968 whole entry): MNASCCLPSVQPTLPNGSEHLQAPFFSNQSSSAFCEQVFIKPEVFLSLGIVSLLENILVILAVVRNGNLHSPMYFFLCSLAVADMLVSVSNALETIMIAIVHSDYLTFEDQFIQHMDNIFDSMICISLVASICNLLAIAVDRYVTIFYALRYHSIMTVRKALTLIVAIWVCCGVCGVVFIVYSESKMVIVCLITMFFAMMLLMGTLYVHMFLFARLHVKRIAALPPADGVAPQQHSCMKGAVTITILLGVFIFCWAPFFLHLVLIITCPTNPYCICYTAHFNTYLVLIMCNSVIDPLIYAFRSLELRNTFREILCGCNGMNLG

[25] = target: T13, A2B (Homo sapiens, UniProt P29275); test: CEREP panel; assay type: binding
T13 construct: CEREP
T13 sequence (P29275 whole entry): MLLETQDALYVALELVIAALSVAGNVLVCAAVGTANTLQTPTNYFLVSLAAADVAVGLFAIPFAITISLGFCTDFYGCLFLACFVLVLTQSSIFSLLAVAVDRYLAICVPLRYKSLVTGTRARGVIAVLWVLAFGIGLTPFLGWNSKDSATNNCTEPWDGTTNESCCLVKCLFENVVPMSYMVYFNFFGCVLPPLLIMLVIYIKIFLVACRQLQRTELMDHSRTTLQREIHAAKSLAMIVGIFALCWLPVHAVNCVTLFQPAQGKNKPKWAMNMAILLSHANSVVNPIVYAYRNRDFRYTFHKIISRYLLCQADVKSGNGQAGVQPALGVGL

[26] = in vitro; conditions: male, C57BL/6J, mouse, microsomes, pH 7.4
[27] = system: Cl- channel (GABA-gated); test: CEREP panel; assay type: binding; conditions: 10 µM
[28] = target: T14, MC1 (Mus musculus, UniProt Q01727); test: CEREP panel; assay type: binding
T14 construct: CEREP (contract assay)
T14 sequence (Q01727 whole entry): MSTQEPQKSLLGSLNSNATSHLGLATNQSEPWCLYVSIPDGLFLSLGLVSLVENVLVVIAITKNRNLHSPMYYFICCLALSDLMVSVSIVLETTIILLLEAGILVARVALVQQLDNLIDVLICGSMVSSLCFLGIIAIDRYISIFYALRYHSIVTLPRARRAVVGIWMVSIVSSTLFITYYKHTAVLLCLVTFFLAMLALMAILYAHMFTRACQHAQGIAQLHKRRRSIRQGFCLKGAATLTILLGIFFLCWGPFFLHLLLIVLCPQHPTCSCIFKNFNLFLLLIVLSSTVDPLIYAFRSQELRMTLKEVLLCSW

[29] = 1-100 mg kg^−1 i.p., cumulative, mice
[30] = pretreatment (SR141716A 3 mg kg^−1, HU910 30 mg kg^−1) before HU210 1.7 mg kg^−1

Structure (SMILES): CCCCCCC(C)(C)c1cc(OC)c(C2=C[C@H]3CC[C@]2(CO)C3(C)C)c(OC)c1 [HU910]
- % inhibition BB [1]: 18%
- % inhibition NOP (ORL1) (h) [2]: 4%
- Plasma protein binding human: 1.8 %free
- pEC50 ± SEM β-AR recruitment mCB2R [3]: 6.78 ± 0.16
- Emax ± SEM β-AR recruitment mCB2R ([3]; normalized to 10 µM CP55940): 66 ± 1%
- GTPγS-cAMP bias factor (BF) [4]: 23.6
- GTPγS-cAMP ΔΔlogR [4]: 1.37 ± 0.24
- LogR GTPγS [4]: 7.15 ± 0.07
- LogR cAMP [4]: 8.48 ± 0.18
- LogR β-AR [4]: 6.57 ± 0.11
- β-AR-GTPγS bias factor (BF) [4]: 0.18
- β-AR-GTPγS ΔΔlogR [4]: -0.75 ± 0.15
- β-AR-cAMP bias factor (BF) [4]: 4.2
- β-AR-cAMP ΔΔlogR [4]: 0.63 ± 0.26
- ΔLogR GTPγS ([4]; reference CP55940): -0.67 ± 0.08
- ΔLogR cAMP ([4]; reference CP55940): -2.04 ± 0.23
- ΔLogR β-AR ([4]; reference CP55940): -1.41 ± 0.12
- RE GTPγS ([4]; relative effectiveness): 0.22
- RE cAMP ([4]; relative effectiveness): 0.009
- RE β-AR ([4]; relative effectiveness): 0.04
- % inhibition B2 (h) [5]: -39%
- IC50 [6]: 1.4 µM
- % inhibition MC4 (h) [7]: 13%
- hypothermia, cannabimimetic effect [8, 29]: did not produce detectable; also recorded: lacked appreciable pharmacological effects
- antagonism of HU210-induced hypothermia [8, 30]: did not significantly reduce
- % inhibition P2Y [9]: -7%
- antinociception, cannabimimetic effect [10, 29]: did not produce detectable; also recorded: lacked appreciable pharmacological effects
- antagonism of HU210-induced antinociception [10, 30]: did not significantly reduce
- P-gp (ER) human [11]: 2.2
- AUCinf [12]: 904 ng·h/mL
- AUCinf/dose [12]: 301 kg·ng·h/mL/mg
- AUClast [12]: 895 ng·h/mL
- Cmax [12]: 495 ng/mL
- T1/2 [12]: 5.2 h
- Tmax [12]: 1.0 h
- % inhibition P2X [13]: -10%

Structure (SMILES): Cc1c(C(=O)NN2CCCCC2)nn(-c2ccc(Cl)cc2Cl)c1-c1ccc(Cl)cc1 [SR141716A]
- inhibition at 10 µM [14]: -12%
- inhibition at 10 µM [15]: 2%
- hepatocyte CLint [16]: 5.7 µL/min/1e6 cells
- solubility [17]: 1.23 µg/mL and 2.7 µM
- inhibition at 10 µM [18]: 14%
- antagonism of HU210-induced hypothermia ([8]; mouse, in vivo): attenuated; also recorded: significantly antagonized
- antagonism of HU210-induced antinociception ([10]; mouse, in vivo): attenuated; also recorded: significantly antagonized
- hepatocyte CLint [19]: 65 µL/min/1e6 cells
- solubility kinetic [20]: < 0.733 µg/mL and < 1.6 µM
- inhibition at 10 µM [21]: -3%
- inhibition at 10 µM [22]: 39%
- inhibition at 10 µM [23]: -3%
- inhibition at 10 µM [24]: 53%
- inhibition at 10 µM [25]: -7%
- microsomal CLint [26]: 109 µL/min/mg
- % inhibition Cl- channel (GABA-gated) [27]: 83%
- inhibition at 10 µM [28]: 10%

Source: PMC5216056 (Nature Communications, 2017)
